Experimental findings from US10098878B2, “HIF-2α inhibitors for treating iron overload disorders” (The Board of Regents of the University of Texas System, priority 2014, dated 2018) are described below.

The structures appear in SMILES notation.

T1 sequence (Q99814 240-350 limits assumed): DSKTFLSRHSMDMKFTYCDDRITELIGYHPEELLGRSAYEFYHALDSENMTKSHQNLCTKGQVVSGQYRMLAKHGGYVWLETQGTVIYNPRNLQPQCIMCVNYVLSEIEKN

The first assay has as its target T1, HIF-2α HIS TAG-PASB Domain (Homo sapiens, UniProt Q99814).
T1 construct: 100 nM HIF-2α HIS TAG-PASB Domain
As to the kind of experiment: HIF-2α Scintillation Proximity Assay (SPA). In kind it is binding. To be noted: 150 nM Compound 211 probe, 100 nM HIF-2α HIS TAG-PASB Domain; read-out: SPA IC50. The procedure:
The total assay volume was about 100 μL in the following configuration: 2 μL compound in 100% DMSO, 88 μL buffer with protein and probe and 10 μL of SPA beads. […] The percent inhibition was determined and IC50 values were calculated using the Dotmatics system based on the following equation: % inhibition=[(high control−sample)/(high control−low control)]×100.
In the case of `CS(=O)(=NC#N)c1ccc(Oc2cc(F)cc(C#N)c2)c2c1[C@H](O)C(F)(F)[C@H]2F` (single isomer, unassigned) [Compound 82], the IC50 came to 2400 nM.

Regarding `N#CN=S(=O)(CF)c1ccc(Oc2cc(F)cc(C#N)c2)c2c1[C@H](O)CC2` (single isomer, unassigned) [Compound 46], the IC50 came to 7200 nM.

As to `N#CN=S(=O)(CF)c1ccc(Oc2cc(F)cc(C#N)c2)c2c1[C@H](O)C(F)(F)C2` (single isomer, unassigned) [Compound 50], the half-maximal inhibitory concentration (IC50) is 24 nM.

Regarding `CC(C)(C)OC(=O)N[C@H]1C[C@@H](O)c2c(S(=O)(=O)C(F)(F)F)ccc(Oc3cc(F)cc(C#N)c3)c21` (relative stereo) [Compound 42, tert-butyl(cis-7-(3-cyano-5-fluorophenoxy)-3-hydroxy-4-((trifluoromethyl)sulfonyl)-2,3-dihydro-1H-inden-1-yl)carbamate], the IC50 is 2200 nM.

On to `O=S(=O)(c1ccc(Oc2ccc3[nH]ncc3c2)c2c1C(O)C(F)(F)C2)C(F)(F)F` (stereo not drawn) [Compound 19, 4-((1H-Indazol-5-yl)oxy)-2,2-difluoro-7-((trifluoromethyl)sulfonyl)-2,3-dihydro-1H-inden-1-ol], for which the concentration for half-maximal inhibition (IC50) was 4900 nM.

For the molecule `N#Cc1cc(F)cc(Oc2ccc(S(N)(=O)=O)c3c2[C@@H](O)C(F)(F)[C@H]3O)c1` [Compound 101, (1R,3S)-7-(3-cyano-5-fluoro-phenoxy)-2,2-difluoro-1,3-dihydroxy-indane-4-sulfonamide], the IC50 was determined as 3700 nM.

For the molecule `C=CCN=S(=O)(c1ccc(Oc2cc(F)cc(C#N)c2)c2c1[C@H](O)C(F)(F)C2)C(F)(F)F` (single isomer, unassigned) [Compound 72], the half-maximal inhibitory concentration (IC50) amounted to 68 nM.

Take `CS(=O)(=NC#N)c1ccc(Oc2cc(F)cc(C#N)c2)c2c1[C@@H](O)C(F)(F)[C@@H]2F` (single isomer, unassigned) [Compound 86]: the half-inhibitory concentration (IC50) worked out at 9900 nM.

Consider `CC1(O)c2cc(Oc3cc(F)cc(F)c3)ccc2S(=O)(=O)C1(F)F` (stereo not drawn) [Compound 189, 5-(3,5-Difluorophenoxy)-2,2-difluoro-3-hydroxy-3-methyl-2,3-dihydrobenzo[b]thiophene 1,1-dioxide], for which the concentration for half-maximal inhibition (IC50) was found to be 6860 nM.

In the case of `CS(=O)(=O)N=S(=O)(CF)c1ccc(Oc2cc(F)cc(C#N)c2)c2c1[C@H](O)C(F)(F)C2` (stereo partly drawn) [Compound 48, N—(((S)-7-(3-cyano-5-fluorophenoxy)-2,2-difluoro-3-hydroxy-2,3-dihydro-1H-inden-4-yl)(fluoromethyl)(oxo)-λ^6-sulfanylidene)methanesulfonamide], the IC50 was 5600 nM.

As to `N#Cc1c(Oc2cc(F)cc(Cl)c2)ccc2c1[C@H](O)CS2(=O)=O` [Compound 171, (3S)-5-(3-Chloro-5-fluoro-phenoxy)-3-hydroxy-1,1-dioxo-2,3-dihydrobenzothiophene-4-carbonitrile], the IC50 stood at 12900 nM.

Take `CS(=O)(=O)c1ccc(Oc2cc(F)cc(C#N)c2)c2c1[C@H](O)CC2(F)F` [Compound 52, 3-[(1R)-3,3-difluoro-1-hydroxy-7-methylsulfonyl-indan-4-yl]oxy-5-fluoro-benzonitrile]: the IC50 came to 6500 nM.

`N#Cc1cc(F)cc(Oc2ccc3c(c2C(F)F)C(O)(C(F)(F)F)C(F)(F)S3(=O)=O)c1` (stereo not drawn) [Compound 209, 3-((4-(difluoromethyl)-2,2-difluoro-3-hydroxy-1,1-dioxido-3-(trifluoromethyl)-2,3-dihydrobenzo[b]thiophen-5-yl)oxy)-5-fluorobenzonitrile]: the concentration for half-maximal inhibition (IC50) was 4400 nM.

As for `CCOc1ccc2c(c1C(F)F)[C@@H](O)C(F)(F)S2(=O)=O` [Compound 202, (R)-4-(Difluoromethyl)-5-ethoxy-2,2-difluoro-3-hydroxy-2,3-dihydrobenzo[b]thiophene 1,1-dioxide], the IC50 was 15500 nM.

For the molecule `CS(=O)(=O)c1ccc(Oc2cncc(F)c2)c2c1[C@H](O)C(F)(F)[C@H]2F` [Compound 94, (1S,3S)-2,2,3-trifluoro-4-((5-fluoropyridin-3-yl)oxy)-7-(methylsulfonyl)-2,3-dihydro-1H-inden-1-ol], the IC50 was 2100 nM.

Regarding `CS(=O)(=NC#N)c1ccc(Oc2cc(F)cc(C#N)c2)c2c1[C@@H](O)C(F)(F)[C@@H]2F` (single isomer, unassigned) [Compound 84], the half-maximal inhibitory concentration (IC50) turned out to be 1570 nM.

On to `CS(=O)(=O)c1ccc(Oc2cncc(C#N)c2)c2c1[C@H](O)C(F)(F)[C@H]2F` [Compound 107, 5-(((1S,3S)-2,2,3-trifluoro-1-hydroxy-7-(methylsulfonyl)-2,3-dihydro-1H-inden-4-yl)oxy)nicotinonitrile], for which the concentration for half-maximal inhibition (IC50) turned out to be 23900 nM.

As for `N=S1(=O)c2ccc(Oc3cc(F)cc(F)c3)c(C(F)F)c2C(O)C1(F)F` (single isomer, unassigned) [Compound 163, 4-(difluoromethyl)-5-(3,5-difluorophenoxy)-2,2-difluoro-3-hydroxy-1-imino-2,3-dihydro-1H-1λ^4-benzo[b]thiophene 1-oxide], the IC50 came out at 59 nM.

The next assay relates to 786-O-Hif-Luc cells. The assay can be described thus: Luciferase Assay. The format is cell-based. To be noted: 786-O-Hif-Luc cells; about 24 hours; read-out: Luciferase EC50. The procedure: A pool of infected cells were then selected against 2 μg/mL of puromycin (P8833, Sigma) for 10 days followed by limited dilution to select single clones.
Each concentration was tested in triplicate. After about 24 hours, luciferase activity was determined using ONE-Glo Luciferase Assay Reagent (E6110, Promega) following the manufacturer's recommended procedure. EC50 were calculated by using Dotmatics software.
For the molecule `[2H][C@@]1(O)c2c(ccc(Oc3cc(F)cc(C#N)c3)c2C(F)F)S(=O)(=O)C1(F)F` [Compound 153, (R)-3-((4-(Difluoromethyl)-2,2-difluoro-3-hydroxy-1,1-dioxido-2,3-dihydrobenzo[b]thiophen-5-yl-3-d)oxy)-5-fluorobenzonitrile], the EC50 was determined as 6 nM.

`N#Cc1cc(F)cc(Oc2ccc3c(c2C(F)F)[C@@H](O)C(F)(F)S3(=O)=O)c1` (single isomer, unassigned) [Compound 113]: the EC50 amounted to 7 nM.

In the case of `N#Cc1cc(F)cc(Oc2ccc3c(c2C(F)F)C(O)C(F)(F)S3(=O)=O)c1` (stereo not drawn) [Compound 139, 3-((4-(Difluoromethyl)-2,2-difluoro-3-hydroxy-1,1-dioxido-2,3-dihydrobenzo[b]thiophen-5-yl)oxy)-5-fluorobenzonitrile], the EC50 is 4 nM.

The same assay, now with this note: 24 h, 786-O-Hif-Luc cells; about 24 hours; read-out: Luciferase EC50.
Regarding `O=S(=O)(c1ccc(Oc2ccc(F)c3[nH]ncc23)c2c1C(O)C(F)(F)C2)C(F)(F)F` (stereo not drawn) [Compound 21, 2,2-Difluoro-4-((7-fluoro-1H-indazol-4-yl)oxy)-7-((trifluoromethyl)sulfonyl)-2,3-dihydro-1H-inden-1-ol], the EC50 worked out at 137 nM.

For `CS(=O)(=O)c1ccc(Oc2cc(F)cc(C#N)c2)c2c1[C@H](O)[C@H](F)[C@H]2F` [Compound 58, 3-[(1S,2S,3S)-2,3-difluoro-1-hydroxy-7-methylsulfonyl-indan-4-yl]oxy-5-fluoro-benzonitrile], the EC50 turned out to be 1020 nM.

`N#Cc1cc(F)cc(Oc2ccc(S(N)(=O)=O)c3c2[C@@H](F)[C@@H](F)[C@H]3O)c1` [Compound 100, (1R,2S,3S)-7-(3-cyano-5-fluoro-phenoxy)-1,2-difluoro-3-hydroxy-indane-4-sulfonamide]: the EC50 is 67 nM.

For the molecule `N#Cc1cc(F)cc(Oc2ccc(S(=O)(=O)C(F)F)c3c2CC(F)(F)[C@H]3O)c1` [Compound 1, 3-[(1S)-7-(difluoromethylsulfonyl)-2,2-difluoro-1-hydroxy-indan-4-yl]oxy-5-fluoro-benzonitrile], the 50% effective concentration (EC50) turned out to be 7 nM.

With `Cn1cc(Oc2ccc(S(=O)(=O)C(F)(F)F)c3c2CC(F)(F)[C@H]3O)cn1` [Compound 13, (S)-2,2-Difluoro-4-((1-methyl-1H-pyrazol-4-yl)oxy)-7-((trifluoromethyl)sulfonyl)-2,3-dihydro-1H-inden-1-ol], the half-maximal effective concentration (EC50) was determined as 177 nM.

Turning to `N#Cc1cc(F)cc(Oc2ccc(S(=O)(=O)C(F)(F)F)c3c2C[C@@H](F)[C@H]3O)c1` [Compound 15, 3-Fluoro-5-(((1S,2R)-2-fluoro-1-hydroxy-7-((trifluoromethyl)sulfonyl)-2,3-dihydro-1H-inden-4-yl)oxy)benzonitrile], the concentration for a half-maximal effect (EC50) was 3 nM.

Still in this assay, the particulars now being: 24 h, read-out: Luciferase EC50.
As to `N#Cc1cc(F)cc(Oc2ccc(S(=O)(=O)C(F)(F)F)c3c2CC(F)(F)[C@H]3N)c1` [Compound 54, 3-[(1S)-1-amino-2,2-difluoro-7-(trifluoromethylsulfonyl)indan-4-yl]oxy-5-fluoro-benzonitrile], the EC50 was determined as 170 nM.

Consider `CS(=O)(=O)c1ccc(Oc2cc(F)cc(C#N)c2)c2c1[C@H](N)C(F)(F)C2` [Compound 6, 3-[(1S)-1-Amino-2,2-difluoro-7-methylsulfonyl-indan-4-yl]oxy-5-fluoro-benzonitrile], for which the EC50 was 244 nM.

For `CS(=O)(=O)c1ccc(Oc2cc(F)cc(C#N)c2)c2c1[C@H](O)C(F)(F)C2` [Compound 5, (S)-3-((2,2-Difluoro-1-hydroxy-7-(methylsulfonyl)-2,3-dihydro-1H-inden-4-yl)oxy)-5-fluorobenzonitrile], the EC50 is 24 nM.

As to `[2H]C([2H])([2H])S(=O)(=O)c1ccc(Oc2cc(F)cc(C#N)c2)c2c1[C@]([2H])(O)C(F)(F)C2` [Compound 16, 3-[(1S)-1-Deuterio-2,2-difluoro-1-hydroxy-7-(trideuteriomethylsulfonyl)indan-4-yl]oxy-5-fluoro-benzonitrile], the EC50 was found to be 24 nM.

In the case of `CS(=O)(=O)c1ccc(Oc2cc(F)cc(C#N)c2)c2c1[C@H](O)[C@H](F)C2` [Compound 17, 3-Fluoro-5-(((1S,2R)-2-fluoro-1-hydroxy-7-(methylsulfonyl)-2,3-dihydro-1H-inden-4-yl)oxy)benzonitrile], the EC50 stood at 36 nM.

Still in this assay, the particulars now being: read-out: Luciferase EC50.
In the case of `[2H]C1(O)c2c(ccc(Oc3cc(F)cc(C#N)c3)c2C(F)F)S(=O)(=O)C1(F)F` (stereo not drawn) [Compound 150, 3-((4-(Difluoromethyl)-2,2-difluoro-3-hydroxy-1,1-dioxido-2,3-dihydrobenzo[b]thiophen-5-yl-3-d)oxy)-5-fluorobenzonitrile], the 50% effective concentration (EC50) was found to be 12 nM.
